Experimental data reported in patent publication US12599666B2, “Photolytic compounds and triplet-triplet annihilation mediated photolysis” (University of Massachusetts, priority 2019, dated 2026).
“And” between values parts separate entries of the source, which are not always exact repeats. Equal values may be shown once. Marks after values point to notes of the source that are not given here.

Legend:
[1] = TTA upconversion quantum yield; assay type: physicochemical; settings: paired with PtOEP
Procedure: The upconversion quantum yields (ΦUC): The upconversion quantum yields were calculated with the eq 3, where ΦUC and Φstd stand for upconversion luminescence quantum yield of sample TTA-UC and fluorescence quantum yield of reference compounds, respectively. Aunk and Astd stand for absorbance of the TTA-UC and reference compound, respectively. Iunk and Istd stand for integrated upconversion luminescence intensity of the TTA-UC and fluorescence intensity of reference compounds, respectively. ηunk and μstd stand for the refractive index of water. The equation is multiplied by a factor of 2 to make the maximum quantum yield of two unified emitters.
The upconversion experiments were deaerated with argon for ca. 15 min before measurement and the argon gas flow was kept during the measurement.

[2] = Photolytic molecule experiment: TTAP photolytic reaction in solution under LED, HPLC yield; assay type: physicochemical; settings: for Yield (HPLC) of photolytic reaction: 1 h
Procedure: Photolytic molecule experiment: The NIR LED (720 nm), far red LED (650 nm), green LED (530 nm), blue LED (476 nm) and deep blue (455 nm) were used for photolytic reactions. […] Then, the solution was excited with a LED (20 mW/cm^2) at 37° C. After the photolytic reaction, the raw product was dried and re-dissolved in CH3CN/H2O=(2/1, v/v) and HPLC was used to analyze the yield of product.

[3] = Photophysical parameters of Sen and PPGs (UV-vis absorption, emission, energy levels); assay type: physicochemical; parameters: λabs maximum absorption wavelength / λem maximum emission wavelength: unit not given here
Procedure: Characterization: ^1H NMR spectra were recorded with a Bruker 500 MHz spectrometer. UV-Vis spectra were recorded on an Agilent Cary-5 spectrophotometer. Steady-state fluorescence spectra were measured on a HITACHI F-7000 spectrometer. […] The sample for TEM measurement was prepared by dropping the solution onto a carbon-coated copper grid following negative staining with 2.0% (w/v) phosphotungstic acid. The particle size and size distribution were measured by using dynamic light scattering (DLS) on a Malvern Nano-ZS particle size analyzer, excitation wavelength 532 nm. All samples in the Stern-Volmer quenching plots experiments were deaerated with argon for ca. 15 min before measurement and the gas flow was maintained during the measurements. For the TTA upconversion spectra measurement, the diode pumped solid-state laser (650 nm, continues wave, CW, Hi-Teach company, China) was used as the excitation light source and a modified spectrofluorometer was used to record the upconversion spectra. For the prodrug photolytic experiment, an All LED (Mightex Company) was used as the excitation light source.
From the absorption and emission spectra of Sen and PPGs, the triplet and singlet energy levels of PPG and Sen can be calculated. The maximum emission wavelength of phosphorescence is the triplet excited state energy level (T1) of the Sen. The maximum emission wavelength of fluorescence is the singlet excited state energy level (S1) of the PPGs. Moreover, according to the literature, we know the triplet excited energy levels of PPGs. The detail information is always in […]

[4] = PPGs; from the literature; listed as An; cited from earlier work
[5] = Stern-Volmer photoluminescence quenching of photosensitizers by PPGs-X; assay type: physicochemical
Procedure: The Stern-Volmer quenching plots experiment (ksv): photoluminescence of photosensitizers (PtTNP, PdTPBP, PtOEP, and Ir(ppy)3) in the presence of different concentrations of PPGs (BDP, perylene, anthracene and coumarin). The mixed solutions were degassed for at least 15 min with Ar in toluene. The ksv constants were calculated with eq 1, where 1o and It stand for photoluminescence intensity of photosensitizer in the absence of PPGs-X and the photoluminescence intensity of photosensitizer in the presence PPGs-X. Q is the concentration of PPGs-X. Biomolecular quenching constants (kq) were calculated by eq2. The Tr is the phosphorescence lifetime of photosensitizer in argon.

[6] = Photocleavage quantum yield / photolytic quantum efficiency calculation; settings: for ε2 × Φp: ε (Sen) × Φp (PPGs); ηp (TTAP): PtOEP as sensitizer; for ε1 × Φp: ε (PPGs) × Φp (PPGs); ηp (direct): direct short wavelength illumination
Excerpt: We compared photolytic quantum efficiency of the widely used PPG of Cou by using the UCNPs as phototransducer.

Question: With `CC(=O)OCc1c2ccccc2cc2ccccc12` [compound 2] as the compound, how does the upconversion quantum yield [1] read?
Answer: 8.7%

Question: What about the “Yield (HPLC) of photolytic reaction” value ([2]; PtOEP, dark, argon) of the same compound?
Answer: No reaction

Question: What about the photolytic yield ([2]; PtOEP, green LED light (20 mW/cm^2, 532 nm)) of the same compound?
Answer: 83%

Question: What about the “Yield (HPLC) of photolytic reaction” value ([2]; PtOEP, light, air) of the same compound?
Answer: Trace

Question: What about the “Yield (HPLC) of photolytic reaction” value ([2]; PtOEP, light, argon) of the same compound?
Answer: 83.2%

Question: What about the “Yield (HPLC) of photolytic reaction” value ([2]; compound only (no PtOEP), green light, argon) of the same compound?
Answer: No reaction

Question: And the “2 × T1 − S1” value ([3]; PPGs)?
Answer: 0.53 eV

Question: And the “S1 singlet excited state” value ([3]; PPGs, from maximum fluorescence emission)?
Answer: 3.02 eV

Question: And the “λabs maximum absorption wavelength” value ([3]; in toluene, 10 μM)?
Answer: 366

Question: What about the “λem maximum emission wavelength” value ([3]; in toluene, 10 μM) of the same compound?
Answer: 411

Question: And the “ξ molar extinction coefficient” value ([3]; in toluene, 10 μM)?
Answer: 1.1 10^4 M^−1 cm^−1

Question: What about the “T1 triplet excited state” value [4] of the same compound?
Answer: 1.77 ^n eV and 1.77 eV

Question: And the “quenching of the photoluminescence of PtOEP” value ([5]; PtOEP)?
Answer: significant quenching

Question: And the “ksv (bimolecular quenching constant)” value ([5]; PtOEP as sensitizer)?
Answer: 2.43 × 10^9 j M^−1S^−1

Question: And the “ksv Stern-Volmer quenching constant” value ([5]; PtOEP as sensitizer)?
Answer: 219000 J/M

Question: And the “increase of ηp (TTAP) over ηp (direct)” value ([6]; PtOEP)?
Answer: 638%

Question: What about the “ε2 × Φp: ε (Sen) × Φp (PPGs); ηp (TTAP)” value [6] of the same compound?
Answer: 6230 ^j

Question: And the “ε2 × Φp: ε (Sen) × Φp (PPGs); ηp (TTAP)” value ([6]; listed as An)?
Answer: 6230

Question: What about the “ε1 × Φp: ε (PPGs) × Φp (PPGs); ηp (direct)” value [6] of the same compound?
Answer: 979

Question: And the “ε1 × Φp: ε (PPGs) × Φp (PPGs); ηp (direct)” value ([6]; listed as An)?
Answer: 976
